We go through one compound from article PMC5220248 (Angewandte Chemie (International ed. in English), 2016).

Residues, ends and D or L forms follow the SMILES beside them.

The target in one data set is HIV Rev protein (Human immunodeficiency virus type 1 group M subtype B, UniProt P04618). The format is binding.
The conditions of data set [1]: human, serum.

For orientation: IC50 means the concentration that gives 50% inhibition. Usually half-life stands for how long it takes for the measured level to halve. On to `C[C@@H]1NC(=O)[C@H](C)NC(=O)[C@@H]2CCCN2C(=O)[C@H](Cc2ccc(O)cc2)NC(=O)[C@H](CCCNC(=N)N)NC(=O)[C@H](Cc2ccc(O)cc2)NC(=O)[C@H](CO)NC1=O` [cRBP, cyclo-YPAASYR] (cyclo(AASYRYP)), for which the IC50 against HIV Rev protein was 28 ± 5 nM. The half-life in data set [1] was about 30 h.
